Results published in US8258186B2, “Pharmaceutical for oral delivery comprising MGBG” (Pathologica, LLC, priority 2009, dated 2012).

Assay: in vivo
Design: species or system beagle dogs
Conditions: male, beagle, dog
Procedure: Two groups of three male beagle dogs weighing 9.0-10.7 kg and aged 8-30 months were fasted overnight before being administered the test article, MGBG, as either a single bolus intravenous dose of 1 mg/kg (Group 1) or as a single oral gavage dose of 10 mg/kg (Group 2). Dose formulation analysis verified administered dose solutions as within 17% of targeted concentrations of 1 and 10 mg/kg for Groups 1 and 2, respectively.
Blood samples (approximately 2.0 mL) were collected for plasma MGBG concentration measurement from all intravenously dosed animals prior to dosing and at approximately T=0.083 (5 min), 0.25 (15 min), 0.5 (30 min), 1, 2, 4, 8, and 24 hours after dosing. A similar procedure was used with orally dosed animals was used, except that collection took place at T=1, 2, 4, 8, 12, 24, and 36 hours after dosing. The samples were centrifuged under refrigerated conditions following completion of sample collection at each interval. The resulting plasma was separated and stored frozen at approximately −70° C. until analysis.

CC(/C=N/NC(=N)N)=N\NC(=N)N [MGBG, 1,1′[methylethanediylidene]dinitrilodiguanidine]
AUC (iv, 1 mg/kg): 1410 ng·h/mL | Clobs (iv, 1 mg/kg): 13.7 mL/min/kg | Cmax (iv, 1 mg/kg): 1180 ng/mL | Tmax (iv, 1 mg/kg): 0.083 h | VSSobs (iv, 1 mg/kg): 14.6 L/kg | half-life (iv, 1 mg/kg): 15.8 h | AUC (po, 10 mg/kg): 6290 ng·h/mL | Clobs (po, 10 mg/kg): 8.29 mL/min/kg | Cmax (po, 10 mg/kg): 616 ng/mL | Tmax (po, 10 mg/kg): 1 h | bioavailability (po, 10 mg/kg): 49% | half-life (po, 10 mg/kg): 15.5 h
